Reference: the NIST ThermoML archive (doi:10.1016/j.jct.2006.03.013)
± gives the expanded uncertainty stated by the source.

Conditions: 182.33 K; Liquid; Closed cell (Static) method

vapor or sublimation pressure [kPa] | SMILES
0.419 ± 0.011 | CCCC [butane]
88.97 ± 0.39 | CC [ethane]
6.02 ± 0.044 | CCC [propane]
